Test results reported in PubChem BioAssay AID1963966 (Molecular Pharmacology Branch, DTP, NCI, 2024).

System: 935938-334-R-J1-PDC spheroids with HUVEC/MSC, viability
Experiment: Anticancer human tumor 935938-334-R-J1-PDC patient-derived small intestine adenocarcinoma cell line growth inhibition [PI3K]
Details: for IC50: curve of first compound; for viability, T/C: stronger effect = lower value
Summary of the method: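 Agents were dosed from a top concentration near clinical Cmax (otherwise 10 microM) in half-log decrements, alone or combined with PI3K inhibitors. The spheroids contain tumor cells plus endothelial (HUVEC) and MSC stroma; viability is measured.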

[1] = second compound 0.0316 µM, first compound 0.0316 µM
[2] = second compound 0.0316 µM, first compound 0.1 µM
[3] = second compound 0.0316 µM, first compound 0.316 µM
[4] = second compound 0.0316 µM, first compound 1 µM
[5] = second compound 0.0316 µM, first compound 3.16 µM
[6] = second compound 0.0316 µM, first compound 10 µM
[7] = second compound 0.1 µM, first compound 0.0316 µM
[8] = second compound 0.1 µM, first compound 0.1 µM
[9] = second compound 0.1 µM, first compound 0.316 µM
[10] = second compound 0.1 µM, first compound 1 µM
[11] = second compound 0.1 µM, first compound 3.16 µM
[12] = second compound 0.1 µM, first compound 10 µM
[13] = second compound 0.316 µM, first compound 0.0316 µM
[14] = second compound 0.316 µM, first compound 0.1 µM
[15] = second compound 0.316 µM, first compound 0.316 µM
[16] = second compound 0.316 µM, first compound 1 µM
[17] = second compound 0.316 µM, first compound 3.16 µM
[18] = second compound 0.316 µM, first compound 10 µM
[19] = second compound 1 µM, first compound 0.0316 µM
[20] = second compound 1 µM, first compound 0.1 µM
[21] = second compound 1 µM, first compound 0.316 µM
[22] = second compound 1 µM, first compound 1 µM
[23] = second compound 1 µM, first compound 3.16 µM
[24] = second compound 1 µM, first compound 10 µM
[25] = second compound 3.16 µM, first compound 0.0316 µM
[26] = second compound 3.16 µM, first compound 0.1 µM
[27] = second compound 3.16 µM, first compound 0.316 µM
[28] = second compound 3.16 µM, first compound 1 µM
[29] = second compound 3.16 µM, first compound 3.16 µM
[30] = second compound 3.16 µM, first compound 10 µM
[31] = second compound 10 µM, first compound 0.0316 µM
[32] = second compound 10 µM, first compound 0.1 µM
[33] = second compound 10 µM, first compound 0.316 µM
[34] = second compound 10 µM, first compound 1 µM
[35] = second compound 10 µM, first compound 3.16 µM
[36] = second compound 10 µM, first compound 10 µM
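Note: compound exposure lasted seven days before viability was read.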
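Throughout, for viability, T/C: percent of vehicle DMSO treated spheroid viability so 100% = untreated.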

SMILES: CC(Cn1ccc(-c2ccc(C#N)c(Cl)c2)n1)NC(=O)c1cc(C(C)O)[nH]n1 (stereo unspecified) + CC(Nc1ncnc2nc[nH]c12)c1cc2cccc(Cl)c2c(=O)n1-c1ccccc1
- IC50 (second compound 0.0316 µM): > 10000 nM
- IC50 (second compound 0.1 µM): > 10000 nM
- IC50 (second compound 0.316 µM): > 10000 nM
- IC50 (second compound 1 µM): > 10000 nM
- IC50 (second compound 3.16 µM): > 10000 nM
- IC50 (second compound 10 µM): > 10000 nM
- viability, T/C [1]: 98.6%
- viability, T/C [2]: 93.4%
- viability, T/C [3]: 97.3%
- viability, T/C [4]: 111%
- viability, T/C [5]: 117%
- viability, T/C [6]: 108%
- viability, T/C [7]: 124%
- viability, T/C [8]: 85.2%
- viability, T/C [9]: 88.7%
- viability, T/C [10]: 99%
- viability, T/C [11]: 93.9%
- viability, T/C [12]: 113%
- viability, T/C [13]: 94.3%
- viability, T/C [14]: 116%
- viability, T/C [15]: 116%
- viability, T/C [16]: 98.2%
- viability, T/C [17]: 74.5%
- viability, T/C [18]: 102%
- viability, T/C [19]: 110%
- viability, T/C [20]: 105%
- viability, T/C [21]: 128%
- viability, T/C [22]: 102%
- viability, T/C [23]: 103%
- viability, T/C [24]: 96%
- viability, T/C [25]: 94.5%
- viability, T/C [26]: 77.3%
- viability, T/C [27]: 105%
- viability, T/C [28]: 91.2%
- viability, T/C [29]: 94.6%
- viability, T/C [30]: 104%
- viability, T/C [31]: 79.7%
- viability, T/C [32]: 69.8%
- viability, T/C [33]: 82%
- viability, T/C [34]: 68.4%
- viability, T/C [35]: 87.6%
- viability, T/C [36]: 97.8%

SMILES: CC1(C)CCC(Nc2ncc(C(F)(F)F)c(-c3c[nH]c4c(P(C)(C)=O)c(C#N)ccc34)n2)CN1 (stereo unspecified) + CC(Nc1ncnc2nc[nH]c12)c1cc2cccc(Cl)c2c(=O)n1-c1ccccc1
- IC50 (second compound 0.0316 µM): < 31.6 nM
- IC50 (second compound 0.1 µM): < 31.6 nM
- IC50 (second compound 0.316 µM): < 31.6 nM
- IC50 (second compound 1 µM): < 31.6 nM
- IC50 (second compound 3.16 µM): < 31.6 nM
- IC50 (second compound 10 µM): < 31.6 nM
- viability, T/C [1]: 43%
- viability, T/C [2]: 46.4%
- viability, T/C [3]: 31.9%
- viability, T/C [4]: 35.3%
- viability, T/C [5]: 34.8%
- viability, T/C [6]: 5.59%
- viability, T/C [7]: 42.3%
- viability, T/C [8]: 36.5%
- viability, T/C [9]: 32.7%
- viability, T/C [10]: 36.9%
- viability, T/C [11]: 35.1%
- viability, T/C [12]: 6.35%
- viability, T/C [13]: 38%
- viability, T/C [14]: 37.1%
- viability, T/C [15]: 41.2%
- viability, T/C [16]: 36.5%
- viability, T/C [17]: 26.8%
- viability, T/C [18]: 6.84%
- viability, T/C [19]: 42%
- viability, T/C [20]: 35.5%
- viability, T/C [21]: 41%
- viability, T/C [22]: 34.8%
- viability, T/C [23]: 33.2%
- viability, T/C [24]: 7.47%
- viability, T/C [25]: 30.8%
- viability, T/C [26]: 38.6%
- viability, T/C [27]: 41.8%
- viability, T/C [28]: 36.2%
- viability, T/C [29]: 32.6%
- viability, T/C [30]: 5.17%
- viability, T/C [31]: 37.8%
- viability, T/C [32]: 37%
- viability, T/C [33]: 35.9%
- viability, T/C [34]: 35.1%
- viability, T/C [35]: 28.5%
- viability, T/C [36]: 5.58%

SMILES: Cn1nccc1Nc1nccc(-c2ccn(C(CO)c3ccc(Cl)c(F)c3)c(=O)c2)n1 (stereo unspecified) + CC(Nc1ncnc2nc[nH]c12)c1cc2cccc(Cl)c2c(=O)n1-c1ccccc1
- IC50 (second compound 0.0316 µM): 767 nM
- IC50 (second compound 0.1 µM): 1460 nM
- IC50 (second compound 0.316 µM): 1300 nM
- IC50 (second compound 1 µM): 1280 nM
- IC50 (second compound 3.16 µM): 529 nM
- IC50 (second compound 10 µM): 143 nM
- viability, T/C [1]: 85.2%
- viability, T/C [2]: 79.2%
- viability, T/C [3]: 66.3%
- viability, T/C [4]: 46.7%
- viability, T/C [5]: 31.1%
- viability, T/C [6]: 38.6%
- viability, T/C [7]: 99.6%
- viability, T/C [8]: 91.1%
- viability, T/C [9]: 73%
- viability, T/C [10]: 54.4%
- viability, T/C [11]: 41.4%
- viability, T/C [12]: 33.6%
- viability, T/C [13]: 87.9%
- viability, T/C [14]: 101%
- viability, T/C [15]: 63.2%
- viability, T/C [16]: 56.2%
- viability, T/C [17]: 41.1%
- viability, T/C [18]: 28.3%
- viability, T/C [19]: 96.2%
- viability, T/C [20]: 81.3%
- viability, T/C [21]: 57.1%
- viability, T/C [22]: 61%
- viability, T/C [23]: 39.6%
- viability, T/C [24]: 27.9%
- viability, T/C [25]: 74.1%
- viability, T/C [26]: 77.8%
- viability, T/C [27]: 55.3%
- viability, T/C [28]: 43.1%
- viability, T/C [29]: 32.4%
- viability, T/C [30]: 33.6%
- viability, T/C [31]: 63.4%
- viability, T/C [32]: 53.5%
- viability, T/C [33]: 43.8%
- viability, T/C [34]: 33.6%
- viability, T/C [35]: 32.6%
- viability, T/C [36]: 25.3%
